Experimental data as given in patent US7491794B2, “Macrocyclic compounds as inhibitors of viral replication” (Intermune, Inc., priority 2003, dated 2009).
pEC50, pIC50: −log10 of the molar value. Like-named read-outs stand apart in the source and are kept apart here.

Experiments:
[1] = tested on: HCV sub-genomic replicon, GS4.3; assay: Quantitation by ELISA of NPTII in the HCV sub-genomic replicon, GS4.3, Section B; type: cell-based; details: Hepatitis C virus, read-out: Replicon EC50
Outline: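 GS4.3 cells (HuH-7 carrying HCV 1377/NS3-3′ replicon) were treated 72 h at 37 °C with inhibitors in 3-fold dilutions, 1% DMSO, no G418. Lysate NPTII was measured by ELISA (TMB, 450 nm). Signal as % of DMSO control; EC50 from 4-parameter fit.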

NS3-NS4A protease = biological target: T1, NS3-NS4A protease (Hepatitis C virus genotype 1a, UniProt P27958); assay: NS3-NS4A protease assay (NS3 inhibition assay, RETS1 substrate), Section B; type: biochemical; details: read-out: NS3-NS4A IC50
T1 construct: Recombinant E. coli or Baculovirus full-length NS3 was diluted to 3.33 μM with assay buffer; made in house; host or cells: E. coli or baculovirus (BV) system
Outline: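 Full-length NS3 (E. coli or baculovirus) precomplexed with excess NS4A-2 peptide, run at 2 nM (E. coli) or 3 nM (BV) NS3; compounds pre-incubated 10 min at room temperature before RETS1 substrate. Fluorescence (ex 335/em 495 nm) read kinetically 30 min; IC50 from four-parameter fit, converted to Ki via Ki=IC50/(1+[S]/Km).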

T1 sequence (P27958 1027-1657): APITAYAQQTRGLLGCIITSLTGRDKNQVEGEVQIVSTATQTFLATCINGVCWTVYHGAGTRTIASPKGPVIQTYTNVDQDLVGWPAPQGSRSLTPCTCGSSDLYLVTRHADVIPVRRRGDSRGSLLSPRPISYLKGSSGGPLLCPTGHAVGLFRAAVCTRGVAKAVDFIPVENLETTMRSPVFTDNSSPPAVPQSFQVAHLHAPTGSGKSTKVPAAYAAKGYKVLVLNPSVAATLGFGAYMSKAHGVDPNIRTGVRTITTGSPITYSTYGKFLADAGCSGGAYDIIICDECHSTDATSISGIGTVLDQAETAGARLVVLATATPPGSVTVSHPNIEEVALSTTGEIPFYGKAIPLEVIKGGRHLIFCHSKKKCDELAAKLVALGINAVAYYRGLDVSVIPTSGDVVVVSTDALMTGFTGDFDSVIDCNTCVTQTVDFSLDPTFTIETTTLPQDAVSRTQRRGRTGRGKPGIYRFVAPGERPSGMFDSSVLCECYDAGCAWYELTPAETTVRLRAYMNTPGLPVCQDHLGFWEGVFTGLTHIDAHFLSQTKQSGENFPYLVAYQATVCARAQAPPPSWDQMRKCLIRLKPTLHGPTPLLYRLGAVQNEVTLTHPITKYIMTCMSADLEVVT

| Structure (SMILES) | pEC50 ([1]; GS4.3 cells, 72 h incubation) | pIC50 (NS3-NS4A protease) | pEC50 ([1]; 72 h) |
| --- | --- | --- | --- |
| CC(C)(C)OC(=O)N[C@H]1CCCCC/C=C\[C@@H]2C[C@@]2(C(=O)NS(=O)(=O)C2CC2)NC(=O)[C@@H]2C[C@@H](OC(=O)N3Cc4ccc(OCCn5ccnc5)cc4C3)CN2C1=O [AR00345096, (1S,4R,6S,14S,18R)-5-(2-Imidazol-1-yl-ethoxy)-1,3-dihydro-isoindole-2-carboxylic acid 14-tert-butoxycarbonylamino-4-cyclopropanesulfonylaminocarbonyl-2,15-dioxo-3,16-diaza-tricyclo[14.3.0.0^4,6]nonadec-7-en-18-yl ester] | > 7.00 | > 7.00 |  |
| Cc1ccc(S(=O)(=O)NC(=O)[C@@]23C[C@H]2/C=C\CCCCC[C@H](NC(=O)OC(C)(C)C)C(=O)N2C[C@H](OC(=O)N4CCc5ccccc5C4)C[C@H]2C(=O)N3)cc1 [AR00320549, (1S,4R,6S,14S,18R)-3,4-Dihydro-1H-isoquinoline-2-carboxylic acid 14-tert-butoxycarbonylamino-2,15-dioxo-4-(toluene-4-sulfonylaminocarbonyl)-3,16-diaza-tricyclo[14.3.0.0^4,6]nonadec-7-en-18-yl ester] |  | > 7.00 | > 7.00 |
| CC(C)(C)OC(=O)N[C@H]1CCCCC/C=C\[C@@H]2C[C@@]2(C(=O)O)NC(=O)[C@@H]2C[C@@H](OC(=O)N3CCc4ccccc4C3)CN2C1=O [AR00220042, (1S,4R,6S,14S,18R)-14-tert-Butoxycarbonylamino-18-(3,4-dihydro-1H-isoquinoline-2-carbonyloxy)-2,15-dioxo-3,16-diaza-tricyclo[14.3.0.0^4,6]nonadec-7-ene-4-carboxylic acid] | > 5.00 | > 6.00 |  |
| CC1CN(C(=O)O[C@@H]2C[C@H]3C(=O)N[C@]4(C(=O)NS(=O)(=O)C5CC5)C[C@H]4/C=C\CCCCC[C@H](NC(=O)OC(C)(C)C)C(=O)N3C2)Cc2ccccc21 (stereo partly drawn) [AR00312026, (1S,4R,6S,14S,18R)-4-Methyl-3,4-dihydro-1H-isoquinoline-2-carboxylic acid 14-tert-butoxycarbonylamino-4-cyclopropanesulfonylaminocarbonyl-2,15-dioxo-3,16-diaza-tricyclo[14.3.0.0^4,6]nonadec-7-en-18-yl ester] | > 7.00 | > 7.00 |  |
| CC(C)(C)CC(=O)N[C@H]1CCCCC/C=C\[C@@H]2C[C@@]2(C(=O)NS(=O)(=O)C2CC2)NC(=O)[C@@H]2C[C@@H](OC(=O)N3Cc4cccc(F)c4C3)CN2C1=O [AR00338070, (1S,4R,6S,14S,18R)-4-Fluoro-1,3-dihydro-isoindole-2-carboxylic acid 4-cyclopropanesulfonylaminocarbonyl-14-(3,3-dimethyl-butyrylamino)-2,15-dioxo-3,16-diaza-tricyclo[14.3.0.0^4,6]nonadec-7-en-18-yl ester] | > 7.00 | > 7.00 |  |
| O=C(N[C@H]1CCCCC/C=C\[C@@H]2C[C@@]2(C(=O)NS(=O)(=O)C2CC2)NC(=O)[C@@H]2C[C@@H](OC(=O)N3CCc4ccccc4C3)CN2C1=O)OCC(F)(F)F [AR00320578, (1S,4R,6S,14S,18R)-3,4-Dihydro-1H-isoquinoline-2-carboxylic acid 4-cyclopropanesulfonylaminocarbonyl-2,15-dioxo-14-(2,2,2-trifluoro-ethoxycarbonylamino)-3,16-diaza-tricyclo[14.3.0.0^4,6]nonadec-7-en-18-yl ester] | > 7.00 | > 7.00 |  |
| CC(C)(C)OC(=O)N[C@H]1CCCCC/C=C\[C@@H]2C[C@@]2(C(=O)O)NC(=O)[C@@H]2C[C@@H](OC(=O)N3Cc4cccc(F)c4C3)CN2C1=O [AR00365369, (1S,4R,6S,14S,18R)-14-tert-Butoxycarbonylamino-18-(4-fluoro-1,3-dihydro-isoindole-2-carbonyloxy)-2,15-dioxo-3,16-diaza-tricyclo[14.3.0.0^4,6]nonadec-7-ene-4-carboxylic acid] | > 6.00 | > 7.00 |  |
| O=C(N[C@H]1CCCCC/C=C\[C@@H]2C[C@@]2(C(=O)O)NC(=O)[C@@H]2C[C@@H](OC(=O)N3CCc4ccccc4C3)CN2C1=O)OCCF [AR00304125, (1S,4R,6S,14S,18R)-18-(3,4-Dihydro-1H-isoquinoline-2-carbonyloxy)-14-(2-fluoro-ethoxycarbonylamino)-2,15-dioxo-3,16-diaza-tricyclo[14.3.0.0^4,6]nonadec-7-ene-4-carboxylic acid] | > 5.00 | > 6.00 |  |
| CC(C)(C)OC(=O)N[C@H]1CCCCC/C=C\[C@@H]2C[C@@]2(C(=O)NS(=O)(=O)C2CC2)NC(=O)[C@@H]2C[C@@H](OC(=O)N3Cc4cc(Cl)c(Cl)cc4C3)CN2C1=O [AR00320121, (1S,4R,6S,14S,18R)-5,6-Dichloro-1,3-dihydro-isoindole-2-carboxylic acid 14-tert-butoxycarbonylamino-4-cyclopropanesulfonylaminocarbonyl-2,15-dioxo-3,16-diaza-tricyclo[14.3.0.0^4,6]nonadec-7-en-18-yl ester] | > 7.00 | > 7.00 |  |
| O=C(N[C@H]1CCCCC/C=C\[C@@H]2C[C@@]2(C(=O)O)NC(=O)[C@@H]2C[C@@H](OC(=O)N3CCc4ccccc4C3)CN2C1=O)OC1CCOCC1 [AR00320002, (1S,4R,6S,14S,18R)-18-(3,4-Dihydro-1H-isoquinoline-2-carbonyloxy)-2,15-dioxo-14-(tetrahydro-pyran-4-yloxycarbonylamino)-3,16-diaza-tricyclo[14.3.0.0^4,6]nonadec-7-ene-4-carboxylic acid] | > 5.00 | > 6.00 |  |
| O=C(N[C@H]1CCCCC/C=C\[C@@H]2C[C@@]2(C(=O)NS(=O)(=O)C2CC2)NC(=O)[C@@H]2C[C@@H](OC(=O)N3CCc4ccccc4[C@H]3CN3CCCCC3)CN2C1=O)OC1CCCC1 [AR00320557, (1S,4R,6S,14S,18R)-1-Piperidin-1S-ylmethyl-3,4-dihydro-1H-isoquinoline-2-carboxylic acid 14-cyclopentyloxycarbonylamino-4-cyclopropanesulfonylaminocarbonyl-2,15-dioxo-3,16-diaza-tricyclo[14.3.0.0^4,6]nonadec-7-en-18-yl ester] | > 7.00 | > 7.00 |  |
| CC(C)(C)Nc1nc2c(s1)CN(C(=O)O[C@@H]1C[C@H]3C(=O)N[C@]4(C(=O)O)C[C@H]4/C=C\CCCCC[C@H](NC(=O)OC(C)(C)C)C(=O)N3C1)CC2 [AR00304103, (1S,4R,6S,14S,18R)-14-tert-Butoxycarbonylamino-18-(2-tert-butylamino-6,7-dihydro-4H-thiazolo[5,4-c]pyridine-5-carbonyloxy)-2,15-dioxo-3,16-diaza-tricyclo[14.3.0.0^4,6]nonadec-7-ene-4-carboxylic acid] | > 5.00 | > 5.00 |  |
| COc1ccc(S(=O)(=O)NC(=O)[C@@]23C[C@H]2/C=C\CCCCC[C@H](NC(=O)OC(C)(C)C)C(=O)N2C[C@H](OC(=O)N4Cc5ccccc5C4)C[C@H]2C(=O)N3)cc1 [AR00334341, (1S,4R,6S,14S,18R)-1,3-Dihydro-isoindole-2-carboxylic acid 14-tert-butoxycarbonylamino-4-(4-methoxy-benzenesulfonylaminocarbonyl)-2,15-dioxo-3,16-diaza-tricyclo[14.3.0.0^4,6]nonadec-7-en-18-yl ester] | > 7.00 | > 7.00 |  |
| Cn1c(C(=O)O)ccc1S(=O)(=O)NC(=O)[C@@]12C[C@H]1/C=C\CCCCC[C@H](NC(=O)OC(C)(C)C)C(=O)N1C[C@H](OC(=O)N3Cc4ccccc4C3)C[C@H]1C(=O)N2 [AR00364266, (1S,4R,6S,14S,18R)-1,3-Dihydro-isoindole-2-carboxylic acid 14-tert-butoxycarbonylamino-4-(5-carboxy-1-methyl-1H-pyrrole-2-sulfonylaminocarbonyl)-2,15-dioxo-3,16-diaza-tricyclo[14.3.0.0^4,6]nonadec-7-en-18-yl ester] | > 6.00 | > 7.00 |  |
| CC(C)(C)OC(=O)N[C@H]1CCCCCCCC2C[C@@]2(C(=O)NS(=O)(=O)C2CC2)NC(=O)[C@@H]2C[C@@H](OC(=O)N3Cc4ccccc4C3)CN2C1=O (stereo in doubt) [AR00333833, (1S,4R,6S,14S,18R)-1,3-Dihydro-isoindole-2-carboxylic acid 14-tert-butoxycarbonylamino-4-cyclopropanesulfonylaminocarbonyl-2,15-dioxo-3,16-diaza-tricyclo[14.3.0.0^4,6]nonadec-18-yl ester] | > 7.00 | > 7.00 |  |
| CN(C)CCOc1ccc2c(c1)CN(C(=O)O[C@@H]1C[C@H]3C(=O)N[C@]4(C(=O)NS(=O)(=O)C5CC5)C[C@H]4/C=C\CCCCC[C@H](NC(=O)OC(C)(C)C)C(=O)N3C1)C2 [AR00345095, (1S,4R,6S,14S,18R)-5-(2-Dimethylamino-ethoxy)-1,3-dihydro-isoindole-2-carboxylic acid 14-tert-butoxycarbonylamino-4-cyclopropanesulfonylaminocarbonyl-2,15-dioxo-3,16-diaza-tricyclo[14.3.0.0^4,6]nonadec-7-en-18-yl ester] | > 7.00 | > 7.00 |  |
| O=C(N[C@H]1CCCCC/C=C\[C@@H]2C[C@@]2(C(=O)NS(=O)(=O)C2CC2)NC(=O)C2C[C@@H](OC(=O)N3CCc4ccccc4C3CN3CCCCC3)CN2C1=O)OC1CCCC1 (stereo partly drawn) [AR00320506, (1S,4R,6S,14S,18R)-1-Piperidin-1-ylmethyl-3,4-dihydro-1H-isoquinoline-2-carboxylic acid 14-cyclopentyloxycarbonylamino-4-cyclopropanesulfonylaminocarbonyl-2,15-dioxo-3,16-diaza-tricyclo[14.3.0.0^4,6]nonadec-7-en-18-yl ester] | > 7.00 | > 7.00 |  |
